Assay results published in patent US8030498B2, “Benzoylpyrazole compounds and herbicides containing them” (Ishihara Sangyo Kaisha, Ltd., priority 2005, dated 2011).

Tests used:
[1] = system: barnyardgrass (Echinochloa crus-galli L.); experiment: Test Example 1: foliar treatment, growth inhibition rate, barnyardgrass; format: in vivo; settings: visually observed 17th to 23rd day after application
Procedure, shortened: (§1)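 Visual scoring of growth inhibition, 0% (untreated) to 100% (complete kill), on days 17–23 following post-emergence spray of formulated compound in water (500 L/ha, 0.1 vol % spreader); plants treated at set leaf stages, e.g. corn 2.0–3.5, wheat 1.7–3.4.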

[2] = system: crabgrass (Digitaria sanguinalis L.); experiment: Test Example 1: foliar treatment, growth inhibition rate, crabgrass; format: in vivo; settings: visually observed 17th to 23rd day after application
Procedure, shortened: as §1

[3] = system: greenfoxtail (Setaria viridis L.); experiment: Test Example 1: foliar treatment, growth inhibition rate, greenfoxtail; format: in vivo; settings: visually observed 17th to 23rd day after application
Procedure, shortened: (§2)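 Post-emergence foliar spray, pot test; WP/EC formulation in water at 500 L/ha, + 0.1 vol % spreader; leaf stage at treatment: corn 2.0–3.5, green foxtail 1.0–3.0, rice 1.0–2.5, wheat 1.7–3.4; visual % inhibition at 17–23 DAT (0 = untreated, 100 = dead).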

[4] = system: redroot pigweed (Amaranthus retroflexus L.); experiment: Test Example 1: foliar treatment, growth inhibition rate, redroot pigweed; format: in vivo; settings: visually observed 17th to 23rd day after application
Procedure, shortened: as §1

[5] = system: prickly sida (Sida spinosa L.); experiment: Test Example 1: foliar treatment, growth inhibition rate, prickly sida; format: in vivo; settings: visually observed 17th to 23rd day after application
Procedure, shortened: as §1

[6] = system: velvetleaf (Abutilon theophrasti MEDIC.); experiment: Test Example 1: foliar treatment, growth inhibition rate, velvetleaf; format: in vivo; settings: visually observed 17th to 23rd day after application
Procedure, shortened: as §1

rice (Oryza sativa L.) = experiment: Test Example 1: foliar treatment, growth inhibition rate, rice; format: in vivo; settings: visually observed 17th to 23rd day after application
Procedure, shortened: as §2

wheat (Triticum spp.) = experiment: Test Example 1: foliar treatment, growth inhibition rate, wheat; format: in vivo; settings: visually observed 17th to 23rd day after application
Procedure, shortened: as §2

corn (Zea mays L.) = experiment: Test Example 1: foliar treatment, growth inhibition rate, corn; format: in vivo; settings: visually observed 17th to 23rd day after application
Procedure, shortened: as §2

[7] = system: soybean (Glycine max Merr.); experiment: Test Example 1: foliar treatment, growth inhibition rate, soybean; format: in vivo; settings: visually observed 17th to 23rd day after application
Procedure, shortened: as §1

barnyardgrass = experiment: Test Example 2: soil application on the day after sowing, growth inhibition rate, barnyardgrass; format: in vivo, Echinochloa crus-galli L.; settings: 250 g/ha active ingredient, observed on 19th to 24th day
Procedure, shortened: (§3)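 Seeds were sown in upland field soil in pots, and on the following day compounds formulated as wettable powders or emulsifiable concentrates were diluted in water (500 liter per hectare) and sprayed onto the soil at prescribed active-ingredient doses. Growth was scored visually 19–24 days later, 0 = untreated to 100% = complete kill.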

crabgrass = experiment: Test Example 2: soil application on the day after sowing, growth inhibition rate, crabgrass; format: in vivo, Digitaria sanguinalis L.; settings: 250 g/ha active ingredient, observed on 19th to 24th day
Procedure, shortened: as §3

greenfoxtail = experiment: Test Example 2: soil application on the day after sowing, growth inhibition rate, greenfoxtail; format: in vivo, Setaria viridis L.; settings: 250 g/ha active ingredient, observed on 19th to 24th day
Procedure, shortened: as §3

redroot pigweed = experiment: Test Example 2: soil application on the day after sowing, growth inhibition rate, redroot pigweed; format: in vivo, Amaranthus retroflexus L.; settings: 250 g/ha active ingredient, observed on 19th to 24th day
Procedure, shortened: as §3

prickly sida = experiment: Test Example 2: soil application on the day after sowing, growth inhibition rate, prickly sida; format: in vivo, Sida spinosa L.; settings: 250 g/ha active ingredient, observed on 19th to 24th day
Procedure, shortened: as §3

velvetleaf = experiment: Test Example 2: soil application on the day after sowing, growth inhibition rate, velvetleaf; format: in vivo, Abutilon theophrasti MEDIC.; settings: 250 g/ha active ingredient, observed on 19th to 24th day
Procedure, shortened: as §3

rice = experiment: Test Example 2: soil application on the day after sowing, growth inhibition rate, rice; format: in vivo, Oryza sativa L.; settings: 250 g/ha active ingredient, observed on 19th to 24th day
Procedure, shortened: as §3

wheat = experiment: Test Example 2: soil application on the day after sowing, growth inhibition rate, wheat; format: in vivo, Triticum spp.; settings: 250 g/ha active ingredient, observed on 19th to 24th day
Procedure, shortened: as §3

corn = experiment: Test Example 2: soil application on the day after sowing, growth inhibition rate, corn; format: in vivo, Zea mays L.; settings: 250 g/ha active ingredient, observed on 19th to 24th day
Procedure, shortened: as §3

soybean = experiment: Test Example 2: soil application on the day after sowing, growth inhibition rate, soybean; format: in vivo, Glycine max Merr.; settings: 250 g/ha active ingredient, observed on 19th to 24th day
Procedure, shortened: as §3

Row | Structure (SMILES) | Growth inhibition rate (%) redroot pigweed ([4]; 31 g/ha active ingredient) [%] | Growth inhibition rate (%) Prickly sida ([5]; 31 g/ha active ingredient) [%] | Growth inhibition rate (%) Soybean ([7]; 31 g/ha active ingredient) [%] | Growth inhibition rate (%) Barnyardgrass ([1]; 31 g/ha active ingredient) [%] | Growth inhibition rate (%) Crabgrass ([2]; 31 g/ha active ingredient) [%] | Growth inhibition rate (%) Greenfoxtail ([3]; 31 g/ha active ingredient) [%] | Growth inhibition rate (%) Velvetleaf ([6]; 31 g/ha active ingredient) [%] | Growth inhibition rate (%) Rice (rice (Oryza sativa L.); 31 g/ha active ingredient) [%] | Growth inhibition rate (%) Wheat (wheat (Triticum spp.); 31 g/ha active ingredient) [%] | Growth inhibition rate (%) Corn (corn (Zea mays L.); 31 g/ha active ingredient) [%] | Growth inhibition rate (%) Barnyardgrass (barnyardgrass) [%] | Growth inhibition rate (%) Crabgrass (crabgrass) [%] | Growth inhibition rate (%) Greenfoxtail (greenfoxtail) [%] | Growth inhibition rate (%) redroot pigweed (redroot pigweed) [%] | Growth inhibition rate (%) Prickly sida (prickly sida) [%] | Growth inhibition rate (%) Velvetleaf (velvetleaf) [%] | Growth inhibition rate (%) Rice (rice) [%] | Growth inhibition rate (%) Wheat (wheat) [%] | Growth inhibition rate (%) Corn (corn) [%] | Growth inhibition rate (%) Soybean (soybean) [%] | further results
1 | CCSC(=O)Oc1c(C(=O)c2ccc(S(C)(=O)=O)c(OC)c2C)cnn1C [Compound No. 35, 5-(ethylthio)carbonyloxy-1-methylpyrazol-4-yl 3-(methoxy)-2-methyl-4-(methylsulfonyl)phenyl ketone] | 90 | 40 | 90 |  |  |  |  |  |  |  |  |  |  |  |  |  |  |  |  |  | pest or weed control at 31 g/ha ([1]; Echinochloa crus-galli, 31 g/ha active ingredient): 90%; pest or weed control at 31 g/ha ([2]; Digitaria sanguinalis, 31 g/ha active ingredient): 80%; pest or weed control at 31 g/ha ([3]; Setaria viridis, 31 g/ha active ingredient): 100%; pest or weed control at 31 g/ha ([6]; Abutilon theophrasti, 31 g/ha active ingredient): 80%; pest or weed control at 31 g/ha (rice (Oryza sativa L.); Oryza sativa, 31 g/ha active ingredient): 80%; pest or weed control at 31 g/ha (wheat (Triticum spp.); Triticum, 31 g/ha active ingredient): 0%; pest or weed control at 31 g/ha (corn (Zea mays L.); Zea mays, 31 g/ha active ingredient): 0%; inhibition at 250 g/ha (barnyardgrass; Echinochloa crus-galli): 90%; inhibition at 250 g/ha (crabgrass; Digitaria sanguinalis): 100%; inhibition at 250 g/ha (greenfoxtail; Setaria viridis): 70%; inhibition at 250 g/ha (redroot pigweed; Amaranthus retroflexus): 95%; inhibition at 250 g/ha (prickly sida; Sida spinosa): 90%; inhibition at 250 g/ha (velvetleaf; Abutilon theophrasti): 20%; inhibition at 250 g/ha (rice; Oryza sativa): 90%; inhibition at 250 g/ha (wheat; Triticum aestivum): 0%; inhibition at 250 g/ha (corn; Zea mays): 0%; inhibition at 250 g/ha (soybean; Glycine max): 0%
2 | CCSC(=O)Oc1c(C(=O)c2ccc(S(C)(=O)=O)c(OCCOC)c2Cl)cnn1C [compound 216] | 100 | 50 | 95 | 100 | 100 | 98 | 98 | 70 | 0 | 10 | 95 | 100 | 100 | 100 | 80 | 90 | 80 | 0 | 0 | 0 | 
3 | CCC(C)SC(=O)Oc1c(C(=O)c2ccc(S(C)(=O)=O)c(C(=O)OC)c2C)cnn1C (centres unmarked) [compound 88] | 95 | 90 | 95 | 98 | 95 | 100 | 95 | 95 | 10 | 20 | 100 | 100 | 98 | 100 | 95 | 100 | 95 | 0 | 0 | 0 | 
4 | CCSC(=O)Oc1c(C(=O)c2ccc(C(F)(F)F)cc2S(C)(=O)=O)cnn1CC [compound 68] | 75 | 70 | 70 | 95 | 40 | 60 | 80 | 60 | 0 | 10 | 100 | 60 | 30 | 98 | 95 | 100 | 100 | 0 | 0 | 40 | 
5 | CCn1ncc(C(=O)c2ccc(S(C)(=O)=O)c(C(=O)OC)c2C)c1OC(=O)SC(C)C [compound 87] | 100 | 75 | 95 | 95 | 100 | 100 | 95 | 90 | 10 | 10 | 80 | 90 | 70 | 95 | 70 | 50 | 80 | 0 | 0 | 0 | 
6 | CCSC(=O)Oc1c(C(=O)c2ccc(S(C)(=O)=O)c(OC)c2Cl)cnn1C [compound 214] |  |  |  |  |  |  |  |  |  |  | 100 | 100 | 100 | 90 | 90 | 90 | 100 | 0 | 0 | 20 | Growth inhibition rate (%) Barnyardgrass ([1]; 63 g/ha active ingredient): 98%; Growth inhibition rate (%) Crabgrass ([2]; 63 g/ha active ingredient): 95%; Growth inhibition rate (%) Greenfoxtail ([3]; 63 g/ha active ingredient): 90%; Growth inhibition rate (%) redroot pigweed ([4]; 63 g/ha active ingredient): 100%; Growth inhibition rate (%) Prickly sida ([5]; 63 g/ha active ingredient): 70%; Growth inhibition rate (%) Velvetleaf ([6]; 63 g/ha active ingredient): 80%; Growth inhibition rate (%) Rice (rice (Oryza sativa L.); 63 g/ha active ingredient): 90%; Growth inhibition rate (%) Wheat (wheat (Triticum spp.); 63 g/ha active ingredient): 0%; Growth inhibition rate (%) Corn (corn (Zea mays L.); 63 g/ha active ingredient): 0%; Growth inhibition rate (%) Soybean ([7]; 63 g/ha active ingredient): 100%
7 | COC(=O)c1c(S(C)(=O)=O)ccc(C(=O)c2cnn(C)c2OC(=O)SC(C)C)c1C [compound 86] | 95 | 80 | 85 | 95 | 90 | 95 | 95 | 95 | 20 | 30 | 95 | 100 | 95 | 100 | 90 | 95 | 90 | 0 | 0 | 0 | 
